Measurements published in US20220306728A1 (priority 2019, published 2022).
Where two headings read alike, the source gives them in different places.

Tests used:
Assay in all cases: microbe, parasite or virus in culture
H3N2 and H1N1 strains = type: cell-based, influenza A virus
H3N2 virus = type: cell-based; settings: Influenza A virus, H3N2, MDCK
H1N1 virus = type: cell-based; settings: Influenza A virus, H1N1, MDCK

COC(=O)OCOc1c2n(ccc1=O)N([C@@H]1c3ccccc3SCc3c1ccc(F)c3F)[C@@H]1COCCN1C2=O [baloxavir marboxil, reference compound]
IC50 (H3N2 and H1N1 strains; read-out: IC50): 2.3 to 4.9 nM

CCOC(=O)C1=C[C@@H](OC(CC)CC)[C@H](NC(C)=O)[C@@H](N)C1 [oseltamivir]
IC50 (H3N2 virus): 7 nM
IC50 (H1N1 virus): 9.1 nM

CC(=O)N[C@H]1[C@H]([C@H](O)[C@H](O)CO)OC(C(=O)O)=C[C@@H]1N=C(N)N [zanamivir, reference compound]
IC50 (H3N2 and H1N1 strains; Influenza A virus, MDCK): 10.7 to 13.7 nM
